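Following 48 hours of exposure in 96-well plates, responses at five concentrations were used to interpolate endpoints linearly. The concentration for 50% growth inhibition is given as GI50.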 Calls of active or inactive are those of the source. Rule as the data show it: active = GI50 up to about 1.1 µM and inactive = higher.
Experiments:
Test in all cases: NCI tumour cell line growth inhibition, 48 h
[1] = system: A498
[2] = system: ACHN
[3] = system: CAKI-1
[4] = system: HCC 2998
[5] = system: HCT-15
[6] = system: MCF7
[7] = system: MOLT-4
[8] = system: NCI/ADR-RES
[9] = system: RPMI-8226
[10] = system: SF-539
[11] = system: SK-OV-3
[12] = system: TK-10
[13] = system: HOP-18
[14] = system: RXF 631
[15] = system: SK-MEL-5
[16] = system: SR
[17] = system: U-251
[18] = system: XF498
[19] = system: SNB-75
[20] = system: HL-60

| SMILES | GI50 [1] | GI50 [2] | GI50 [3] | GI50 [4] | GI50 [5] [µM] | GI50 [6] | GI50 [7] | GI50 [8] | GI50 [9] | GI50 [10] | GI50 [11] | GI50 [12] | GI50 [13] | GI50 [14] | GI50 [15] | GI50 [16] | GI50 [17] | GI50 [18] | GI50 [19] | GI50 [20] |
| --- | --- | --- | --- | --- | --- | --- | --- | --- | --- | --- | --- | --- | --- | --- | --- | --- | --- | --- | --- | --- |
| COc1ccc(-c2cc(O)c3cc(C)cnc3n2)cc1 | 7.29 µM (inactive) | 7.06 µM (inactive) | 6.11 µM (inactive) | 14.5 µM (inactive) | 3.23 | 2.72 µM (inactive) | 4.43 µM (inactive) | 3.73 µM (inactive) | 3.73 µM (inactive) | 6.41 µM (inactive) | 4.14 µM (inactive) | 2.86 µM (inactive) |  |  |  |  |  |  |  |  |
| COc1ccc(NC(=O)/C(=C/c2ccc(N(CCC#N)CCC#N)cc2)NC(=O)c2cc([N+](=O)[O-])ccc2Cl)cc1 |  | 10.1 µM (inactive) | 26.2 µM (inactive) | 45.8 µM (inactive) | 4.62 |  | 83.8 µM (inactive) |  | > 100 µM (inactive) | 18.9 µM (inactive) | > 100 µM (inactive) | 66.1 µM (inactive) | > 100 µM (inactive) | 99.5 µM (inactive) | > 100 µM (inactive) | 74.1 µM (inactive) | > 100 µM (inactive) | > 100 µM (inactive) |  |  |
| CC1=CC2=C(C=O)C(=O)[C@](C)(O)[C@@H](O)C2=CO1 | 24.3 µM (inactive) |  | 33.5 µM (inactive) | 19.1 µM (inactive) | 28.8 | 39.4 µM (inactive) | 15.6 µM (inactive) | > 53.8 µM (inactive) | 15.9 µM (inactive) | 29.4 µM (inactive) | 19.5 µM (inactive) |  | > 54.5 µM (inactive) |  | 24.6 µM (inactive) |  | 25.2 µM (inactive) | > 54.3 µM (inactive) | 13.8 µM (inactive) |  |
| Cc1cc(OCC(O)CO)ccc1Cl (centres undefined) | > 100 µM (inactive) | > 100 µM (inactive) | > 100 µM (inactive) | > 100 µM (inactive) | > 100 |  | > 100 µM (inactive) |  | > 100 µM (inactive) | > 100 µM (inactive) | > 100 µM (inactive) | > 100 µM (inactive) | > 100 µM (inactive) | > 100 µM (inactive) | > 100 µM (inactive) | 60.1 µM (inactive) | > 100 µM (inactive) |  | 87.3 µM (inactive) | > 100 µM (inactive) |
| C=CCN1C(=O)/C(=C/c2ccccc2)N=C1SC1OC(COC(=O)c2ccccc2)C(OC(=O)c2ccccc2)C1OC(=O)c1ccccc1 (centres undefined) | 49.8 µM (inactive) | 30.3 µM (inactive) | 97.9 µM (inactive) | > 100 µM (inactive) | > 100 | 15.1 µM (inactive) | > 100 µM (inactive) | > 100 µM (inactive) | 16.4 µM (inactive) | > 100 µM (inactive) | > 100 µM (inactive) | > 100 µM (inactive) |  |  | > 100 µM (inactive) | 64.3 µM (inactive) | > 100 µM (inactive) |  | > 100 µM (inactive) | 32.8 µM (inactive) |
| COC(=N)C(C)C |  | > 100 µM (inactive) | > 100 µM (inactive) | > 100 µM (inactive) | > 100 |  | > 100 µM (inactive) |  | > 100 µM (inactive) | > 100 µM (inactive) | > 100 µM (inactive) | > 100 µM (inactive) |  |  | > 100 µM (inactive) | > 100 µM (inactive) | > 100 µM (inactive) |  | > 100 µM (inactive) | > 100 µM (inactive) |
| Cc1nc(Nc2nnc(-c3cc([N+](=O)[O-])cc([N+](=O)[O-])c3C)o2)sc1C(=O)CC(=O)Cc1nc2ccc(Cl)cc2nc1O | > 100 µM (inactive) | > 100 µM (inactive) | > 100 µM (inactive) | > 100 µM (inactive) | > 100 |  | > 100 µM (inactive) |  | > 100 µM (inactive) | > 100 µM (inactive) | > 100 µM (inactive) | > 100 µM (inactive) |  |  | > 100 µM (inactive) | 77.6 µM (inactive) | > 100 µM (inactive) | > 100 µM (inactive) | > 100 µM (inactive) | > 100 µM (inactive) |
| N#CCCN(CCC#N)c1ccc(/C=C2\N=C(c3cc([N+](=O)[O-])ccc3Cl)N(NC(=O)CC(=O)Nc3ccccc3Cl)C2=O)cc1 |  | > 100 µM (inactive) | > 100 µM (inactive) | > 100 µM (inactive) | > 100 |  | > 100 µM (inactive) |  | > 100 µM (inactive) | > 100 µM (inactive) | > 100 µM (inactive) | > 100 µM (inactive) |  |  | > 100 µM (inactive) | > 100 µM (inactive) | > 100 µM (inactive) | > 100 µM (inactive) |  |  |
| CCOCC(=O)N(C)c1cccc2c3c(n(C)c12)CCCCC3 | > 100 µM (inactive) |  | 0.798 µM (active) | > 100 µM (inactive) | > 100 | > 100 µM (inactive) | > 61.5 µM (inactive) | > 100 µM (inactive) |  | > 100 µM (inactive) | > 100 µM (inactive) |  |  |  | > 100 µM (inactive) |  | > 100 µM (inactive) | > 93.8 µM (inactive) | > 46.1 µM (inactive) | > 100 µM (inactive) |
| CC/C(CC(=O)CCC(=O)Nc1ccc(C)c(C)c1)=N\NC(=O)c1cc2ccccc2cc1O |  | 24.9 µM (inactive) | 20.8 µM (inactive) | 18.4 µM (inactive) | 13.9 |  | 11.4 µM (inactive) |  |  |  | 13.6 µM (inactive) |  | 15.2 µM (inactive) | 69.5 µM (inactive) |  | 18 µM (inactive) | 28.8 µM (inactive) |  |  | 1.92 µM (inactive) |

— ChEMBL document CHEMBL1201862, “PubChem BioAssay data set” (2004)
